Assay results as given in patent US10172355B2, “Safened herbicidal compositions including 4-amino-3-chloro-5-fluoro-6-(4-chloro-2-fluoro-3-methoxyphenyl)pyridine-2-carboxylic acid or a derivative thereof for use in rice” (Dow AgroSciences LLC, priority 2012, dated 2019).

Legend:
Type in all cases: in vivo
ORYSA=Orysa sativa, Rice [1] = test: In-water applied herbicides and safeners in transplanted paddy rice, visual injury; conditions: in-water
Description: Weed seeds or nutlets of the desired test plant species were planted in puddled soil (mud) prepared by mixing a shredded, non-sterilized mineral soil (50.5 percent silt, 25.5 percent clay, and 24 percent sand, with a pH of about 7.6 and an organic matter content of about 2.9 percent) and water at a 1:1 volumetric ratio. The prepared mud was dispensed in 365 mL aliquots into 16-ounce (oz.) non-perforated plastic pots with a surface area of 86.59 square centimeters (cm^2) leaving a headspace of 3 centimeters (cm) in each pot. Rice seeds were planted in Sun Gro MetroMix® 306 planting mixture, which typically has a pH of 6.0 to 6.8 and an organic matter content of about 30 percent, in plastic plug trays. Seedlings at the second or third leaf stage of growth were transplanted into 860 mL of mud contained in 32-oz. non-perforated plastic pots with a surface area of 86.59 cm^2 4 days prior to herbicide application. The paddy was created by filling the headspace of the pots with 2.5 to 3 cm of water. When required to ensure good germination and healthy plants, a fungicide treatment and/or other chemical or physical treatment was applied. The plants were grown for 4-22 days in a greenhouse with an approximate 14 h photoperiod which was maintained at about 29′C during the day and about 26° C. during the night. Nutrients were added as Osmocote® (17:6:10, N:P:K+minor nutrients) at 2 g per 16-oz. pot and 4 g per 32-oz. pot. Water was added on a regular basis to maintain the paddy flood, and supplemental lighting was provided with overhead metal halide 1000-Watt lamps as necessary. The plants were employed for testing when they reached the second or third true leaf stage.
Treatments consisted of the acid or esters of 4-amino-3-chloro-5-fluoro-6-(4-chloro-2-fluoro-3-methoxy-phenyl)pyridine-2-carboxylic acid (compound A) and various safeners alone and in combination. Forms of compound A were applied on an acid equivalent basis. Safener components were applied on an active ingredient or acid equivalent basis depending on the compound.
Treatment requirements for each compound or herbicidal component were calculated based upon the rates being tested, the concentration of active ingredient or acid equivalent in the formulation, an application volume of 2 mL per component per pot, and an application area of 86.59 cm^2 per pot.
For formulated compounds, a measured amount was placed in an individual 100 or 200 mL glass vial and was dissolved in a volume of 1.25% (v/v) Agri-Dex® crop oil concentrate to obtain application solutions.
For technical grade compounds, a weighed amount can be placed in an individual 100 to 200 mL glass vial and dissolved in a volume of acetone to obtain concentrated stock solutions. […] The concentrated stock solutions obtained can be diluted with an equivalent volume of an aqueous mixture containing 2.5% (v/v) crop oil concentrate so that the final application solutions contain 1.25% (v/v) crop oil concentrate.
Applications were made by injecting with a pipetter appropriate amounts of the application solutions, individually and sequentially, into the aqueous layer of the paddy. Control plants were treated in the same manner with the solvent blank. Applications were made so that all treated plant material received the same concentrations of acetone and crop oil concentrate.
The treated plants and control plants were placed in a greenhouse as described above and water was added as needed to maintain a paddy flood. After approximately 3 weeks the condition of the test plants as compared with that of the untreated plants was determined visually and scored on a scale of 0 to 100 percent where 0 corresponds to no injury or growth inhibition and 100 corresponds to complete kill.
Colby's equation was used to determine the herbicidal effects expected from the mixtures (Colby, S. R. 1967. Calculation of the synergistic and antagonistic response of herbicide combinations. Weeds 15:20-22.). […]

ORYSA=Orysa sativa, Rice [2] = test: Postemergence foliar-applied herbicides and safeners in direct-seeded rice, visual injury; conditions: foliar; for Visual Injury (%) - 21 DAA ORYSA-‘Clearfield 171’ Obs / Visual Injury (%) - 21 DAA ORYSA-‘Neptune’ Obs / Visual Injury (%) - 21 DAA ORYSA-‘Wells’ Obs: Tables 1,2,7,8
Description: (§1) Seeds or nutlets of the desired test plant species were planted in a soil matrix prepared by mixing a loam or sandy loam soil (e.g., 28.6 percent silt, 18.8 percent clay, and 52.6 percent sand, with a pH of about 5.8 and an organic matter content of about 1.8 percent) and calcareous grit in an 80 to 20 ratio. The soil matrix was contained in plastic pots with a surface area of 84.6 square centimeters (cm^2). When required to ensure good germination and healthy plants, a fungicide treatment and/or other chemical or physical treatment was applied. The plants were grown for 8-22 days in a greenhouse with an approximate 14 hr photoperiod which was maintained at about 29° C. during the day and 26° C. during the night. Nutrients (Peters Excel 15-5-15 5-Ca 2-Mg and iron chelate) were applied in the irrigation solution as needed and water was added on a regular basis. Supplemental lighting was provided with overhead metal halide 1000-Watt lamps as necessary. The plants were employed for testing when they reached the second or third true leaf stage.
(§2) Treatments consisted of the acid or esters of 4-amino-3-chloro-5-fluoro-6-(4-chloro-2-fluoro-3-methoxy-phenyl)pyridine-2-carboxylic acid (compound A) and various safener components alone and in combination. Forms of compound A were applied on an acid equivalent basis. Safener components were applied on an active ingredient or acid equivalent basis depending on the compound.
(§3) Treatment requirements were calculated based upon the rates being tested, the concentration of active ingredient or acid equivalent in the formulation, and a 12 mL application volume at a rate of 187 L/ha.
(§4) For treatments comprised of formulated compounds, measured amounts of compounds were placed individually in 25 mL glass vials and diluted in a volume of 1.25% (v/v) Agri-dex crop oil concentrated to obtain 12× stock solutions. […] Application solutions were prepared by adding an appropriate amount of each stock solution (e.g., 1 mL) and diluted to the appropriate final concentrations with the addition of 10 mL of an aqueous mixture of 1.25% (v/v) Agri-dex crop oil concentrate so that the final spray solutions contained 1.25% (v/v) Agri-dex crop oil concentrate.
(§5) For treatments comprised of technical compounds, weighed amounts were placed individually in 25 mL glass vials and dissolved in a volume of 97:3 v/v acetone/DMSO to obtain 12× stock solutions. […] Application solutions were prepared by adding an appropriate amount of each stock solution (e.g., 1 mL) and diluted to the appropriate final concentrations with the addition of 10 mL of an aqueous mixture of 1.5% (v/v) Agri-dex crop oil concentrate so that the final spray solutions contained 1.25% (v/v) Agri-dex crop oil concentrate. When technical materials were used, the concentrated stock solutions were added to the spray solutions so that the final acetone and DMSO concentrations of the application solutions were […], respectively.
(§6) For treatments comprised of formulated and technical compounds, weighed amounts of the technical materials were placed individually in 25 mL glass vials and dissolved in a volume of 97:3 v/v acetone/DMSO to obtain 12× stock solutions, and measured amounts of the formulated compounds were placed individually in 25 mL glass vials and diluted in a volume of 1.5% (v/v) Agri-dex crop oil concentrate or water to obtain 12× stock solutions. […] Application solutions were prepared by adding an appropriate amount of each stock solution (e.g., 1 mL) and diluted to the appropriate final concentrations with the addition of an appropriate amount of an aqueous mixture of 1.5% (v/v) Agri-dex crop oil concentrate so that the final spray solutions contained 1.25% (v/v) Agri-dex crop oil concentrate. When required, additional water and/or 97:3 v/v acetone/DMSO was added to individual application solutions so that the final acetone and DMSO concentrations of the application solutions being compared were 8.1% and 0.25%, respectively. […]

[3] = test system: ECHCG=Echinochloa crus-galli; test: Postemergence foliar-applied herbicides and safeners, visual injury of weed; conditions: Echinochloa crus-galli, foliar, 480 h, read-out: Visual Injury (%) - 20 DAA ECHCG Obs, foliar; Compound A form 140 g ae/ha alone; trial of Tables 5,9,11,13
Description: as §1, §2, §3, §4, §5, §6

`CCOC(=O)C1=NOC(c2ccccc2)(c2ccccc2)C1` [Isoxadifen-ethyl, ethyl 4,5-dihydro-5,5-diphenyl-3-isoxazole-carboxylate] was tested, and the “Visual Injury (%) - 21 DAA ORYSA - ‘M202’ Obs” value (ORYSA=Orysa sativa, Rice [1]; safener 140 g ai/ha alone) was 0%, the “Visual Injury (%) - 21 DAA ORYSA - ‘M202’ Obs” value (ORYSA=Orysa sativa, Rice [1]; safener 280 g ai/ha alone) was 0% and the “Visual Injury (%) - 21 DAA ORYSA - ‘M202’ Obs” value (ORYSA=Orysa sativa, Rice [1]; safener 560 g ai/ha alone) was 0%. For the same molecule, the “Visual Injury (%) - 21 DAA ORYSA-‘Clearfield 171’ Obs” value (ORYSA=Orysa sativa, Rice [2]; safener 70 g ai/ha alone) was 0%, the “Visual Injury (%) - 21 DAA ORYSA-‘Neptune’ Obs” value (ORYSA=Orysa sativa, Rice [2]; safener 70 g ai/ha alone) was 0% and the “Visual Injury (%) - 21 DAA ORYSA-‘Wells’ Obs” value (ORYSA=Orysa sativa, Rice [2]; safener 70 g ai/ha alone) was 0%. For the same molecule, the “Visual Injury (%) - 21 DAA ORYSA-‘Clearfield 171’ Obs” value (ORYSA=Orysa sativa, Rice [2]; safener 140 g ai/ha alone) was 0%, the “Visual Injury (%) - 21 DAA ORYSA-‘Neptune’ Obs” value (ORYSA=Orysa sativa, Rice [2]; safener 140 g ai/ha alone) was 0% and the “Visual Injury (%) - 21 DAA ORYSA-‘Wells’ Obs” value (ORYSA=Orysa sativa, Rice [2]; safener 140 g ai/ha alone) was 0%. For the same molecule, the “Visual Injury (%) - 21 DAA ORYSA-‘Neptune’ Obs” value (ORYSA=Orysa sativa, Rice [2]; safener 280 g ai/ha alone) was 0% and the “Visual Injury (%) - 21 DAA ORYSA-‘Wells’ Obs” value (ORYSA=Orysa sativa, Rice [2]; safener 280 g ai/ha alone) was 0%.

For `COC(=O)c1nc(-c2ccc(Cl)c(OC)c2F)c(F)c(N)c1Cl` [Methyl], the “Visual Injury (%) - 21 DAA ORYSA - ‘M202’ Obs” value (ORYSA=Orysa sativa, Rice [1]; Compound A form 140 g ae/ha alone) was 17.5%, the pest or weed control at 140 g/ha [3] was 98% and the Visual crop injury (%) at 140 g/ha (ORYSA=Orysa sativa, Rice [2]; Oryza sativa, 480 h, read-out: Visual Injury (%) - 20 DAA ORYSA-‘Clearfield 171’ Obs, foliar, Compound A form 140 g ae/ha alone, trial of Tables 5,9,11,13) was 12%.
